This note sets out measurements from patent US20220396565A1 (Hoffmann-La Roche Inc., priority 2020, published 2022).

The subject of the assay is Acinetobacter baumannii ATCC17961. The experiment in a line: Antimicrobial susceptibility testing: 90% growth inhibitory concentration (IC90) determination, Iso-Sensitest broth. Type of assay: cell-based. The conditions noted are these: Acinetobacter baumannii. The method, boiled down: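 Twofold serial dilutions (e.g. 10 to 0.02 μM final) were tested in Iso-Sensitest broth against ~5×10^(5) CFU/ml at 35±2 °C. OD600 was read every 20 min over 16 h. IC90 was derived from growth inhibition during the logarithmic phase.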

Setting [1] is: ATCC17961, read-out: ATCC 17961 IC90.
The mark [2] stands for this setting: ATCC17961, 90% growth inhibitory concentration, Acinetobacter baumannii ATCC17961, Iso-Sensitest broth, read-out: ATCC 17961 IC90.

Molecules are shown by their SMILES. Structures can show the parent of a compound that is named as a salt. Where two headings read alike, the source gives them in different places.

What is called IC90 is the point of the concentration-response curve where the effect stands at 90%. As for `Cn1c(-c2ccc(OCF)c(F)c2F)cnc1C(=O)Nc1ccc(C(=O)N2CCC(C(=O)NCCN)CC2)c(Cl)c1` [Example 88, N-(2-aminoethyl)-1-(2-chloro-4-(5-(2,3-difluoro-4-(fluoromethoxy)phenyl)-1-methyl-1H-imidazole-2-carboxamido)benzoyl) piperidine-4-carboxamide 2,2,2-trifluoroacetate], the IC90 under setting [1] worked out at 50 nM.

In the case of `Cn1c(-c2ccc(OCF)c(F)c2F)cnc1C(=O)Nc1ccc(C(=O)N2CCN(C(=O)[C@@H]3C[C@@H](O)CN3)CC2)c(Cl)c1` [Example 221, N-(3-chloro-4-(4-((2S,4R)-4-hydroxypyrrolidine-2-carbonyl)piperazine-1-carbonyl)phenyl)-5-(2,3-difluoro-4-(fluoromethoxy)phenyl)-1-methyl-1H-imidazole-2-carboxamide formate], under setting [2], the IC90 came out at 50 nM.

On to `Cn1c(-c2ccc(OCC#N)c(F)c2Cl)cnc1C(=O)Nc1ccc(C(=O)N2CCN(C(=O)C3(O)CCNCC3)CC2)c(Cl)c1` [Example 251, 5-[2-chloro-4-(cyanomethoxy)-3-fluoro-phenyl]-N-[3-chloro-4-[4-(4-hydroxypiperidine-4-carbonyl)piperazine-1-carbonyl]phenyl]-1-methyl-imidazole-2-carboxamide formate], for which the 90% effect concentration (IC90) under setting [2] came out at 50 nM.

Turning to `COc1ccc(-c2cnc(C(=O)Nc3ccc(C(=O)N4CCN(C(=O)C5CCC(=O)NC5)CC4)c(Cl)c3)n2C)c(F)c1F` (centres unmarked) [Example 125, N-[3-chloro-4-[4-(6-oxopiperidine-3-carbonyl)piperazine-1-carbonyl]phenyl]-5-(2,3-difluoro-4-methoxy-phenyl)-1-methyl-imidazole-2-carboxamide], under setting [2], the IC90 came to 110 nM.

Turning to `COc1ccc(-c2cnc(C(=O)Nc3ccc(C(=O)N4CCC(C(=O)NC[C@@H]5CCNC5)CC4)c(Cl)c3)n2C)c(F)c1F` [Example 55, 1-[2-chloro-4-[[5-(2,3-difluoro-4-methoxy-phenyl)-1-methyl-imidazole-2-carbonyl]amino]benzoyl]-N-[[(3R)-pyrrolidin-3-yl]methyl]piperidine-4-carboxamide formate], the IC90 under setting [2] is 50 nM.

In the case of `COc1ccc(-c2cnc(C(=O)Nc3ccc(C(=O)N4CCN(C(=O)CC5NC(=O)NC5=O)CC4)c(Cl)c3)n2C)c(F)c1F` (centres unmarked) [Example 128, N-[3-chloro-4-[4-[2-(2,5-dioxoimidazolidin-4-yl)acetyl]piperazine-1-carbonyl]phenyl]-5-(2,3-difluoro-4-methoxy-phenyl)-1-methyl-imidazole-2-carboxamide], under setting [2], the 90% effect concentration (IC90) is 270 nM.

As to `Cn1c(-c2ccc(OC(F)F)c(F)c2F)cnc1C(=O)Nc1ccc(C(=O)N2CCC(C(=O)N[C@H]3CNC[C@H]3F)CC2)c(Cl)c1` [Example 44, 1-[2-chloro-4-[[5-[4-(difluoromethoxy)-2,3-difluoro-phenyl]-1-methyl-imidazole-2-carbonyl]amino]benzoyl]-N-[(3S,4R)-4-fluoropyrrolidin-3-yl]piperidine-4-carboxamide trifluoroacetate], the IC90 under setting [2] was 30 nM.

With `COc1ccc(-c2cnc(C(=O)Nc3ccc(C(=O)N4CCN(C(=O)C5CC(O)C5)CC4)c(Cl)c3)n2C)c(F)c1F` (centres unmarked) [Example 219, N-(3-chloro-4-(4-(3-hydroxycyclobutane-1-carbonyl)piperazine-1-carbonyl)phenyl)-5-(2,3-difluoro-4-methoxyphenyl)-1-methyl-1H-imidazole-2-carboxamide], under setting [2], the 90% effect concentration (IC90) is 110 nM.

On to `COc1ccc(-c2cnc(C(=O)Nc3ccc(C(=O)N4CCN(C(=O)[C@@H]5C[C@](C)(O)CN5)CC4)c(Cl)c3)n2C)c(F)c1F` [Example 232, N-[3-chloro-4-[4-[(2S,4S)-4-hydroxy-4-methyl-pyrrolidine-2-carbonyl]piperazine-1-carbonyl]phenyl]-5-(2,3-difluoro-4-methoxy-phenyl)-1-methyl-imidazole-2-carboxamide formate], for which the 90% effect concentration (IC90) under setting [2] is 90 nM.

`Cc1c(-c2cnc(C(=O)Nc3ccc(C(=O)N4CCN(C(=O)C[C@@H]5CCNC5)CC4)c(Cl)c3)n2C)ccc(OCF)c1F` [Example 259, N-[3-chloro-4-[4-[2-[(3S)-pyrrolidin-3-yl]acetyl]piperazine-1-carbonyl]phenyl]-5-[3-fluoro-4-(fluoromethoxy)-2-methyl-phenyl]-1-methyl-imidazole-2-carboxamide formate]: the IC90 under setting [2] is 50 nM.

In the case of `COc1ccc(-c2cnc(C(=O)Nc3ccc(C(=O)N4CCN(C(=O)CC5(O)CCNCC5)CC4)c(Cl)c3)n2C)c(F)c1F` [Example 161, N-[3-chloro-4-[4-[2-(4-hydroxy-4-piperidyl)acetyl]piperazine-1-carbonyl]phenyl]-5-(2,3-difluoro-4-methoxy-phenyl)-1-methyl-imidazole-2-carboxamide formate], the IC90 under setting [2] was determined as 30 nM.

Consider `CC[C@@]1(O)CN[C@H](C(=O)N2CCN(C(=O)c3ccc(NC(=O)c4ncc(-c5ccc(OCC#N)c(F)c5F)n4C)cc3C)CC2)C1` [Example 226, 5-[4-(cyanomethoxy)-2,3-difluoro-phenyl]-N-[4-[4-[(2S,4S)-4-ethyl-4-hydroxy-pyrrolidine-2-carbonyl]piperazine-1-carbonyl]-3-methyl-phenyl]-1-methyl-imidazole-2-carboxamide formate], for which the IC90 under setting [2] was found to be 130 nM.

Turning to `COc1ccc(-c2cnc(C(=O)Nc3ccc(C(=O)N4CCN(C(=O)C5(O)CCNCC5)CC4)c(Cl)c3)n2C)c(F)c1F` [Example 166, N-[3-chloro-4-[4-(4-hydroxypiperidine-4-carbonyl)piperazine-1-carbonyl]phenyl]-5-(2,3-difluoro-4-methoxy-phenyl)-1-methyl-imidazole-2-carboxamide formate], under setting [2], the IC90 was 50 nM.

Take `COc1ccc(-c2cnc(C(=O)Nc3ccc(C(=O)N4CCN(C(=O)CCOCCOCCN)CC4)c(Cl)c3)n2C)c(F)c1F` [Example 131, N-[4-[4-[3-[2-(2-aminoethoxy)ethoxy]propanoyl]piperazine-1-carbonyl]-3-chloro-phenyl]-5-(2,3-difluoro-4-methoxy-phenyl)-1-methyl-imidazole-2-carboxamide formate]: the IC90 under setting [2] amounted to 90 nM.

Regarding `Cn1c(-c2ccc(OCC#N)c(F)c2F)cnc1C(=O)Nc1ccc(C(=O)N2CCN(CCNCC(N)=O)CC2)c(Cl)c1` [Example 287, N-[4-[4-[2-[(2-amino-2-oxoethyl)amino]ethyl]piper-azine-1-carbonyl]-3-chloro-phenyl]-5-[4-(cyanomethoxy)-2,3-difluoro-phenyl]-1-methyl-imidazole-2-carboxamide formate], the IC90 under setting [1] turned out to be 140 nM.

Regarding `C#CCNCCCNC(=O)C1CCN(C(=O)c2ccc(NC(=O)c3ncc(-c4ccc(OC)c(F)c4F)n3C)cc2CC)CC1` [Example 286, 1-[4-[[5-(2,3-difluoro-4-methoxy-phenyl)-1-methyl-imidazole-2-carbonyl]amino]-2-ethyl-benzoyl]-N-[3-(prop-2-ynylamino)propyl]piper-idine-4-carboxamide], the IC90 under setting [2] came to 180 nM.

Consider `CN(C)CC(=O)N1CCN(C(=O)c2ccc(NC(=O)c3ncc(-c4ccc(OCF)c(F)c4F)n3C)cc2Cl)CC1` [Example 220, N-(3-chloro-4-(4-(dimethylglycyl)piperazine-1-carbonyl)phenyl)-5-(2,3-difluoro-4-(fluoromethoxy)phenyl)-1-methyl-1H-imidazole-2-carboxamide formate], for which the IC90 under setting [2] is 40 nM.

`CN(C)CC(=O)N1CCN(C(=O)c2ccc(NC(=O)c3ncc(-c4ccc(OC(F)F)c(F)c4F)n3C)cc2Cl)CC1` [Example 156, N-[3-chloro-4-[4-[2-(dimethylamino)acetyl]piperazine-1-carbonyl]phenyl]-5-[4-(difluoromethoxy)-2,3-difluoro-phenyl]-1-methyl-imidazole-2-carboxamide formate]: the concentration for an effect of 90% (IC90) under setting [2] came out at 30 nM.

For the compound `Cc1cc(NC(=O)c2ncc(-c3ccc(OCC#N)c(F)c3F)n2C)ccc1C(=O)N1CCN(C(=O)[C@@H]2C[C@](C)(O)CN2)CC1` [Example 225, 5-[4-(cyanomethoxy)-2,3-difluoro-phenyl]-N-[4-[4-[(2S,4S)-4-hydroxy-4-methyl-pyrrolidine-2-carbonyl]piperazine-1-carbonyl]-3-methyl-phenyl]-1-methyl-imidazole-2-carboxamide formate], under setting [2], the IC90 was found to be 160 nM.

For the compound `Cc1cc(NC(=O)c2ncc(-c3ccc(OCF)c(Cl)c3F)n2C)ccc1C(=O)N1CCN(C(=O)[C@@H]2C[C@@H](O)CN2)CC1` [Example 248, 5-[3-chloro-2-fluoro-4-(fluoromethoxy)phenyl]-N-[4-[4-[(2S,4R)-4-hydroxypyrrolidine-2-carbonyl]piperazine-1-carbonyl]-3-methyl-phenyl]-1-methyl-imidazole-2-carboxamide], the IC90 under setting [2] turned out to be 50 nM.

In the case of `COc1ccc(-c2cnc(C(=O)Nc3ccc(C(=O)N4CCN(C(=O)CN5CCC(O)C5)CC4)c(Cl)c3)n2C)c(F)c1F` (centres unmarked) [Example 294, N-[3-chloro-4-[4-[2-(3-hydroxypyrrolidin-1-yl)acetyl]piperazine-1-carbonyl]phenyl]-5-(2,3-difluoro-4-methoxy-phenyl)-1-methyl-imidazole-2-carboxamide formate], the IC90 under setting [2] worked out at 40 nM.

Consider `COc1ccc(-c2cnc(C(=O)Nc3ccc(C(=O)N4CCN(C(=O)CC5CCC(=O)N5)CC4)c(Cl)c3)n2C)c(F)c1F` (centres unmarked) [Example 127, N-[3-chloro-4-[4-[2-(5-oxopyrrolidin-2-yl)acetyl]piperazine-1-carbonyl]phenyl]-5-(2,3-difluoro-4-methoxy-phenyl)-1-methyl-imidazole-2-carboxamide], for which the IC90 under setting [2] was 100 nM.

For `COc1ccc(-c2cnc(C(=O)Nc3ccc(C(=O)N4CCN(C(=O)CCCC(N)=O)CC4)c(Cl)c3)n2C)c(F)c1F` [Example 122, N-[4-[4-(5-amino-5-oxo-pentanoyl)piperazine-1-carbonyl]-3-chloro-phenyl]-5-(2,3-difluoro-4-methoxy-phenyl)-1-methyl-imidazole-2-carboxamide], under setting [2], the IC90 was 90 nM.
